In patent US10316021B2, “Heteroarylphenoxy benzamide kappa opioid ligands” (Pfizer Inc., priority 2016, dated 2019):
Like-named read-outs stand apart in the source and are kept apart here.

Experiments:
major CYP450 isozymes = assay: CYP450 DDI cocktail assay (reversible inhibition, all isozymes together); format: in vitro ADME, human; conditions: for risk of reversible inhibition of CYP450 isozymes, in words: 3 μM; for >25% reversible inhibition of CYP activity at 3 μM (CYP): CYP450 DDI cocktail assay, isozymes inhibited in brackets
Method: Multi-Point Cocktail DDI IC50 Assay Conditions:
Standard marker activity substrates were incubated with pooled human liver microsomes (HL-MIX-102) in the presence of NADPH (1.2 mM) in 100 mM KH2PO4, pH 7.4 containing 3.3 mM MgCl2 at 37° C. The incubation volume was 0.1 mL, utilizing a 384-well plate format. The microsomal protein concentrations (0.1 mg/mL) and P450 concentration (0.035 μM) was used for each probe substrate at the following concentrations [tacrine (1A2) 2 uM; diclofenac (2C9) 5 μM; dextromethorphan (2D6) 5 μM; midazolam (3A4) 2 μM; taxol (2C8) 5 μM; S-mephenytoin (2C19) 40 μM]. Substrate concentrations were near Km values that had been previously determined and incubation times were selected based on determinations of reaction velocity linearity. Each test compound/prototypical inhibitors was tested at a concentration range of 0-30 μM in triplicate, in final vehicle solvent concentrations of 0.9% acetonitrile and 0.1% DMSO. Incubations were initiated with the addition of NADPH. At the end of the incubation period, termination solvent containing internal standard was added, the terminated incubation mixture was centrifuged to precipitate microsomal protein. Samples were directly injected on an HPLC-MS/MS system. A Biomek FX workstation was used for liquid handling and sample incubation.
Reversible CYP450 inhibitory potential for each compound was assessed using the CYP450 DDI cocktail assay, measuring the inhibition of the metabolism of a known probe substrate of each of the major CYP isozymes at 3 μM concentration.

CYP3A4 = assay: Single point time dependent inhibition (SPTDI) assay; format: in vitro ADME, human
Method: Single Point Time Dependent Inhibition (SPTDI) Assay:
The objective of this study was to investigate the potential of a series of carboxamides to be time dependent inactivators of CYP3A isozymes, in vitro, using midazolam and testosterone as probe substrates for CYP 3A4/5 activity incubated with pooled human liver microsomes (HLM). Pooled HLMs (0.1-1.0 mg/ml) were pre-incubated with individual carboxamides at initial substrate concentrations of 6 or 10 μM in the presence and absence of NADPH (1.3 mM). Pre-incubations (n=2/compound) were performed for 30 min at 37° C. After pre-incubation, a 10-fold dilution of the incubate (0.02 ml) was added to the probe substrate incubate (0.18 ml) containing the respective probe P450 isozyme substrate (midazolam or testosterone for CYP3A, 1 uM), and was incubated at 37° C. The combined incubation reactions were terminated and analyzed for marker substrate activity (Ex: hydroxyl metabolite of midazolam and 6β hydroxy testesterone) as described previously (Walsky and Obach, 2004; Obach et al., 2007). Terminated incubation mixtures were filtered and analyzed by liquid chromatography (LC)-tandem mass spectrometry (MS/MS) for metabolites as described previously (Walsky and Obach, 2004). To determine kobs,app values, the decrease in natural logarithm of the activity over time was plotted for each inactivator concentration, and kobs,app values were described as the negative slopes of the lines. Inactivation kinetic parameters were determined using nonlinear regression of the data to the expression in eq. 1:
[formula] Statistical significance of kobs between solvent and test incubations was inferred using analysis performed by Yates et al. (Yates P, Eng H, Di L, Obach R S. Drug Metab Dispos 2012; 40:2289-96).
Irreversible inhibition, or time-dependent inhibition (TDI) of cytochrome P450s (CYPs) is generally characterized by an increase in enzyme inhibition with respect to time and inhibitor concentration (Grimm 2009). In cases where enzyme inhibition requires metabolic turnover, the mechanism generally involves the formation of a reactive inhibitory intermediate that may irreversibly inactivate CYPs; this mechanism could cause clinical drug-drug interactions due to inhibition of the relevant CYP responsible for metabolizing the victim drug (Grimm 2009; Rowland Yeo 2011). Hazard assessment for irreversible CYP450 inhibitory potential of CYP3A was performed for several compounds in Table 22 using the single point time dependent inhibition (SPTDI) assay, which measures the pseudo-first order rate constant of inactivation (kobs) at a single high concentration (6-10 μM) of a test compound (Zimmerlin 2011). Based on the analysis performed by Yates (2008), compounds showing a kobs of >0.008 min^−1 in this assay are considered to have a potential for TDI, and kobs<0.008 min^−1 are negative or may have a very weak potential for TDI at CYP3A4.

[1] = Shake flask Log D (SFLogD) determination, pH 7.4; format: physicochemical; conditions: for logD: shake flask, octan-1-ol / 0.1 M sodium phosphate buffer
Method: Shake Flask Log D (SF Log D) Determination:
The Log D determinations were carried out in a similar manner as described by Hay et al. Drug Metabolism and Disposition 37(9), 1864-1870, 2009, the procedure of which is generally described below.
Log D(7.4) Determination. The distribution coefficient of the test compounds between octan-1-ol and 0.1 M sodium phosphate buffer, pH 7.4, was determined by the shake flask methodology in an automated manner. 0.3 mg of compound was dissolved in 300 μL of octan-1-ol and aliquoted in duplicate into a 96-well block. Three hundred microliters of presaturated buffer (2 liters of buffer presaturated with 10 mL of octan-1-ol) was added to the wells, and the solution was vigorously mixed. After centrifugation, the two phases were separated. Ten microliters of a 1:200 dilution of the octan-1-ol layer and 10 μL of a 1:20 dilution of the buffer layer were directly injected onto the high-performance liquid chromatography (HPLC) (for example using an appropriate C18 column, isocratic elution with 90% methanol, 10% water, 2 mM ammonium acetate, and 0.03% formic acid at flow rate of 2 mL/min). The peak areas were corrected for the dilution factors, and the following calculation was applied to determine the mean log D value at pH 7.4 (log D(7.4)): […]

HepG2 cells = assay: HepG2_Glu ATP viability 72 hr; format: cell-based, human; conditions: for IC50: Homo sapiens, HepG2, glucose-supplemented media, ATP viability, 72 hour exposure, read-out: HepG2 Glu 72 hr; for cytotoxicity in HepG2 cell line, in words: 72 hours, cellular ATP
Method: This assay was run in a similar manner to the assay as described in Marroquin et al. Toxicological Sciences 97(2), 539-547 (2007) with a modification such that the instant assay was run for a 72 hour period as described below.
The aim of this assay was to measure cytotoxicity of a compound by measuring cell viability. […] The reagent used to quantify the ATP present was Promega Cell Titer-Glo. This reagent works by catalyzing luciferin by luciferase in the presence of Mg^2+, ATP, and molecular oxygen, thus emitting a luminescent signal, which was proportional to the amount of ATP present in the sample.
HepG2 cells grown in glucose-supplemented media were plated in 384 well plates at a density of 1000 cells/well for the 72 hour assay in a total medium volume of 25 μl/well. Plates were then incubated for 24 hours at 37° C., 95% humidity, and 5% CO2 before compound dosing.
After 24 hours to allow cells to attach to the plate, HepG2 cells were exposed to test compounds in an 11-point dose response format with a […], ranging from 300 uM to 0.029 uM for 72 hours. All compounds were tested in triplicate. Following the 72 hour exposure to test compounds, cell viability was determined by measuring the concentration of cellular ATP by adding Promega Cell Titer-Glo according to the manufacturer's directions. The plates were then read on a […] plate reader and data is analyzed using ActivityBase software.

SMILES	>25% reversible inhibition of CYP activity at 3 μM (CYP) (major CYP450 isozymes)	logD [1]	IC50 (HepG2 cells)	risk of reversible inhibition of CYP450 isozymes, in words (major CYP450 isozymes)	SPTDI CYP3A4 kobs (CYP3A4; single high dose of 10 μM)	risk of time dependent inhibition (TDI) at CYP3A4, in words (CYP3A4)	risk of time dependent inhibition (TDI) at CYP3A4, in words (CYP3A4; listed as Compound 8)	Log D, in words [1]	cytotoxicity in HepG2 cell line, in words (HepG2 cells)	risk of time dependent inhibition (TDI) at CYP3A4, in words (CYP3A4; listed as Compound 11)	SPTDI kobs at CYP3A4 (CYP3A4; tested at 10 μM)	SPTDI CYP3A4 kobs (CYP3A4; single dose of 6 μM)	SPTDI kobs at CYP3A4 (CYP3A4; tested at 6 μM)	risk of time dependent inhibition (TDI) at CYP3A4, in words (CYP3A4; listed as Compound 12)
NC(=O)c1ccc(Oc2ccc(CN3CCCC3c3ccccc3)cc2)nc1 (stereo not drawn) [Comparator D]	yes (2D6)	2.3	69 µM	a risk for reversible DDI at CYP450 isozymes 2C8, 2C9, 3A4, and/or 2D6	0.0065 min⁻¹									
Cc1nn(C)cc1[C@@H]1CCCN1Cc1ccc(Oc2ccc(C(N)=O)cc2)cc1 [Example 11, 4-(4-{[(2S)-2-(1,3-Dimethyl-1H-pyrazol-4-yl)pyrrolidin-1-yl]methyl}phenoxy)benzamide]	no	1.9	267 µM	no significant risk of reversible inhibition	0.0055 min⁻¹	low to no significant risk for TDI at CYP3A4		much more in line with drugs that progress to Phase II	little to no cytotoxicity	not time dependent inactivators of CYP3A4				
NC(=O)c1ccc(Oc2ccc(CN3CCC[C@H]3c3cccc(F)c3)cc2)c(F)c1 [Comparator F]	no	3.7	56 µM		0.0133 min⁻¹	potential risk of CYP3A4 TDI		significantly higher Log D values	cytotoxicity at lower concentrations		0.0133 min⁻¹			
Cc1cc(C)cc([C@@H]2CCCN2Cc2ccc(Oc3ccc(C(N)=O)cc3F)cc2)c1 [Comparator E, reference compound]	yes (2C8)	4.6	43 µM	a risk for reversible DDI at CYP450 isozymes 2C8, 2C9, 3A4, and/or 2D6		potential risk of CYP3A4 TDI		significantly higher Log D values	cytotoxicity at lower concentrations			0.0113^2 min−1	0.011 min⁻¹	

More lines, main results first:

>25% reversible inhibition of CYP activity at 3 μM (CYP) (major CYP450 isozymes)	logD [1]	IC50 (HepG2 cells)	SMILES	risk of reversible inhibition of CYP450 isozymes, in words (major CYP450 isozymes)	SPTDI CYP3A4 kobs (CYP3A4; single high dose of 10 μM)	risk of time dependent inhibition (TDI) at CYP3A4, in words (CYP3A4)	risk of time dependent inhibition (TDI) at CYP3A4, in words (CYP3A4; listed as Compound 8)	Log D, in words [1]	cytotoxicity in HepG2 cell line, in words (HepG2 cells)	risk of time dependent inhibition (TDI) at CYP3A4, in words (CYP3A4; listed as Compound 11)	SPTDI kobs at CYP3A4 (CYP3A4; tested at 10 μM)	SPTDI CYP3A4 kobs (CYP3A4; single dose of 6 μM)	SPTDI kobs at CYP3A4 (CYP3A4; tested at 6 μM)	risk of time dependent inhibition (TDI) at CYP3A4, in words (CYP3A4; listed as Compound 12)
no	1.9	> 300 µM	COc1nn(C)cc1C1CCCN1Cc1ccc(Oc2ccc(C(N)=O)cc2F)cc1 (single isomer, unassigned; (-)) [Example 8, (−)-3-Fluoro-4-(4-{[2-(3-methoxy-1-methyl-1H-pyrazol-4-yl)pyrrolidin-1-yl]methyl}phenoxy)benzamide]	no significant risk of reversible inhibition	0.0044 min⁻¹	low to no significant risk for TDI at CYP3A4	not time dependent inactivators of CYP3A4	much more in line with drugs that progress to Phase II	little to no cytotoxicity					
no	1.8	174 µM	NC(=O)c1ccc(Oc2ccc(CN3CCC(c4ccccc4)C3)cc2)nc1 (stereo not drawn) [Comparator A, reference compound]											
yes (2C8, 2C9,	3.2	72 µM	NC(=O)c1ccc(Oc2ccc(CN3CCCC3c3cccnc3)cc2)c(Cl)c1 (stereo not drawn) [Comparator C]	a risk for reversible DDI at CYP450 isozymes 2C8, 2C9, 3A4, and/or 2D6										
no	2.7	112 µM	NC(=O)c1ccc(Oc2ccc(CN3CCCCC3c3ccccc3)cc2)nc1 (stereo not drawn) [Comparator B]		0.0041 min⁻¹									
no	1.4	> 300 µM	COc1nn(C)cc1[C@@H]1CCCN1Cc1ccc(Oc2ccc(C(N)=O)cc2)cc1 (single isomer, unassigned) [Example 12]	no significant risk of reversible inhibition	0.0042 min⁻¹	low to no significant risk for TDI at CYP3A4		much more in line with drugs that progress to Phase II	little to no cytotoxicity					not time dependent inactivators of CYP3A4
